# Measured values from ChEMBL document CHEMBL1201862, “PubChem BioAssay data set” (2004).
# Calls of active or inactive are those of the source.
# Key:
# [1] = molecular target: T1, Tyrosine-protein phosphatase non-receptor type 7 (Homo sapiens, UniProt P35236); assay: inhibitors of human HePTP phosphatase, […], biochemical, absorbance, leukemia target (AID 521); format: functional
# T1 sequence (P35236 whole entry): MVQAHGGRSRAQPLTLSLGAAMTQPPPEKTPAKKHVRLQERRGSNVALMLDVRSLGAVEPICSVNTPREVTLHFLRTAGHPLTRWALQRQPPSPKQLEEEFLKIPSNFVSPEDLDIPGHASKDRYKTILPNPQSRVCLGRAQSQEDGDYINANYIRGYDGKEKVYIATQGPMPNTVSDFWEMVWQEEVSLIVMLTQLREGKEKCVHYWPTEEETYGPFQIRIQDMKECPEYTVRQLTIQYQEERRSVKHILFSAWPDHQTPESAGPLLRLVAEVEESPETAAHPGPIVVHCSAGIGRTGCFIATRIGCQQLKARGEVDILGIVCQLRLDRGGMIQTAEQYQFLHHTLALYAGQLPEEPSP
# [2] = molecular target: Sphingosine 1-phosphate receptor 2 (Homo sapiens, UniProt O95136); assay: Dose Response Cell Based Assay for Agonists of the S1P2 Receptor. [Related pubchem assays: 729, 736, 843 ]; format: functional
# [3] = test system: HEK293; assay: HEK293T cell cytotoxicity, dose response, cytotoxicity control, ATP luminescence, cherry-pick samples (AID 687005); format: functional, cell-based; conditions: Homo sapiens;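 note: cells exposed to compound for 48 hours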
# [4] = HEK293 Cytotoxicity Assay Measured in Cell-Based System Using Plate Reader - 7071-01_Inhibitor_Dose_CherryPick_Activity_Set2.; format: functional
# [5] = molecular target: Large T antigen (Simian virus 40, UniProt P03070); format: functional, Betapolyomavirus macacae;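 note: Confirmatory-stage PubChem screen for compounds that inhibit SV40 T antigen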
# [6] = molecular target: Bifunctional protein GlmU (Mycobacterium tuberculosis, UniProt P9WMN3); assay: Inhibitors of Mycobacterial Glucosamine-1-phosphate acetyl transferase (GlmU). Secondary screen.; parameters: species or system Mycobacterium tuberculosis H37Rv
# [7] = molecular target: 1-phosphatidylinositol 4,5-bisphosphate phosphodiesterase gamma-1 (Homo sapiens, UniProt P19174); assay: Counterscreen for inhibitors of phospholipase C isozymes (PLC-B3): Fluorescence-based biochemical high throughput dose response assay to identify inhibitors of phospholipase C isozymes (PLC-gamma1).
# [8] = molecular target: 1-phosphatidylinositol 4,5-bisphosphate phosphodiesterase beta-3 (Homo sapiens, UniProt Q01970); assay: Fluorescence-based biochemical high throughput dose response assay to identify inhibitors of phospholipase C isozymes (PLC-B3).
# [9] = molecular target: E3 ubiquitin-protein ligase Mdm2 (Homo sapiens, UniProt Q00987); assay: enhancers of MDM2-luciferase reporter signal, concentration-effect titration, project on inhibitors of MDM2 ubiquitin ligase, cellular assay, luminescent readout, 384-well plate format (AID 1394); format: functional;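 note: MDM2 E3 inhibitors raise luminescence so EC50 is for signal enhancement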
# [10] = test system: Streptococcus sp. 'group A'; assay: growth inhibition of control SK(-) GAS strain, dose response, counter-screen for streptokinase expression inhibitor project, luminescence, kanamycin, BacTiterGlo, confirmation (AID 1900); format: functional, organism-based
# [11] = molecular target: T2, Streptokinase A (Streptococcus pyogenes serotype M1, UniProt P10520); assay: S. pyogenes streptokinase expression inhibitors, potency, dose response, plasminogen activation absorbance, OD405 (AID 1914); format: functional, Streptococcus pyogenes M1 GAS;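 note: secreted streptokinase activity via plasminogen activation per viability signal from cell pellet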
# T2 sequence (P10520 whole entry): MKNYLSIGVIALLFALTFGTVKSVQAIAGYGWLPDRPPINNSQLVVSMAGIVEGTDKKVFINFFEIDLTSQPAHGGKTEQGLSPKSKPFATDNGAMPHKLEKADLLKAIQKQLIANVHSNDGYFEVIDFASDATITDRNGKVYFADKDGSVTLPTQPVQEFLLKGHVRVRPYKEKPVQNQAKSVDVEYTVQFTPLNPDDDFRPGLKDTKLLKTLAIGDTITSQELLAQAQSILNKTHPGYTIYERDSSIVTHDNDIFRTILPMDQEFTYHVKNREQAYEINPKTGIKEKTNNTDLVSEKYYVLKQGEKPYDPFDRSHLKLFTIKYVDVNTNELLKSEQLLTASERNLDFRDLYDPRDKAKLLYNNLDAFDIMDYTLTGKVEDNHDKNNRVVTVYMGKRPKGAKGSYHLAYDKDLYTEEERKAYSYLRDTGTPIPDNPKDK
# [12] = test system: Streptococcus; assay: Group A Streptococcus viability loss, dose response, counter-screen for streptokinase expression inhibitor project, luminescence, BacTiterGlo (AID 1915); format: functional, organism-based;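 note: potency for reduction of bacterial viability or growth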
# [13] = test system: H9c2; assay: cells; format: functional, cell-based; conditions: Rattus norvegicus, H9c2, Myocardium;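 note: confirmatory concentration-response retest of ultra-high-throughput screening hits for modulation of myocardial damage; cell death induced by hydrogen peroxide oxidative stress; compound pretreatment for 60 min then peroxide exposure for 2 h; potency is for protecting the cells against peroxide damage rather than for killing them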
# [14] = molecular target: Transthyretin (Homo sapiens, UniProt P02766); assay: Luminescence-based cell-based high throughput dose response assay to identify activators of Transthyretin (TTR) transcription.; format: functional
# [15] = molecular target: T3, Methionyl-tRNA synthetase, putative (Trypanosoma brucei brucei, UniProt Q38C91); format: functional, Trypanosoma brucei brucei strain 927/4 GUTat10.1
# [16] = Counterscreen for inhibitors of Trypanosoma brucei methionyl tRNA synthetase (MetRS): Luminescence-based cell-based high throughput dose response assay to identify compounds that are cytotoxic to Jurkat human T lymphocyte cells.; format: functional
# [17] = molecular target: T3, Methionyl-tRNA synthetase, putative; format: functional, Trypanosoma brucei brucei strain 927/4 GUTat10.1; remark: listed apart in the source
# [18] = Late stage counterscreen for inhibitors of Trypanosoma brucei methionyl tRNA synthetase (MetRS): Luminescence-based cell-based high throughput dose response assay to identify compounds that are cytotoxic to Jurkat human T lymphocyte cells.; format: functional
# T3 sequence (Q38C91 whole entry): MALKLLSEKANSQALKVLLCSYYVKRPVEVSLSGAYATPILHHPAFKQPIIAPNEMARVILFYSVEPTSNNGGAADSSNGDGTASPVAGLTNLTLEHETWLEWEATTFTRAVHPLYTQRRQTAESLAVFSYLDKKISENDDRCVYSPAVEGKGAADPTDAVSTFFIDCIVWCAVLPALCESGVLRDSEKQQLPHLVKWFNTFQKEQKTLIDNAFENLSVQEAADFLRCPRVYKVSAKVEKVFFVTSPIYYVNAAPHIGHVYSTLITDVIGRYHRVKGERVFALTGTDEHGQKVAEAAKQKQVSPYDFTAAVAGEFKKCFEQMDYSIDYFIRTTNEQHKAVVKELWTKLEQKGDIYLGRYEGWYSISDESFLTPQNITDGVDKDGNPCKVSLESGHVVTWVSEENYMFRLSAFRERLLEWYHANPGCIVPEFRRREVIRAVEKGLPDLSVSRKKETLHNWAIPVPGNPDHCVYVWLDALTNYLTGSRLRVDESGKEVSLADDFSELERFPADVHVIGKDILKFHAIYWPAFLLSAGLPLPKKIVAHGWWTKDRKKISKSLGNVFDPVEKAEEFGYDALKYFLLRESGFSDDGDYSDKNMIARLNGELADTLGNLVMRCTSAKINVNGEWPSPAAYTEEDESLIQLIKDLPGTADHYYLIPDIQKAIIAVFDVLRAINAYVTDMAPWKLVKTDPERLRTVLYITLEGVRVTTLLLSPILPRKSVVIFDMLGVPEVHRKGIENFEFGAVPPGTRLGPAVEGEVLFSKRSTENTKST
# Chain of Bifunctional protein GlmU (P9WMN3 whole entry): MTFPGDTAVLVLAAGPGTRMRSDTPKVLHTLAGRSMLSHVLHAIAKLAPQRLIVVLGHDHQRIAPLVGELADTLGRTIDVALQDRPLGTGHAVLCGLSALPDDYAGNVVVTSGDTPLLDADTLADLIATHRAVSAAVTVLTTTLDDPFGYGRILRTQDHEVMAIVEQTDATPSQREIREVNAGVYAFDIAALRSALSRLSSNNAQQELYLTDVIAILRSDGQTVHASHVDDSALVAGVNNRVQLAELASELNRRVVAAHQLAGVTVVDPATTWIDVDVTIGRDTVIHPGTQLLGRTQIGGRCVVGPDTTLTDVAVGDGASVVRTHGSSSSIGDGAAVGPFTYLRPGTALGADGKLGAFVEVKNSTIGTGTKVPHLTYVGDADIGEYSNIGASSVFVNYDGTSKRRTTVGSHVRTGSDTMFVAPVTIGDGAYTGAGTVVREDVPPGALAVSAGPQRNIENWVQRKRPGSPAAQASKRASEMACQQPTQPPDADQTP
# Chain of 1-phosphatidylinositol 4,5-bisphosphate phosphodiesterase gamma-1 (P19174 whole entry): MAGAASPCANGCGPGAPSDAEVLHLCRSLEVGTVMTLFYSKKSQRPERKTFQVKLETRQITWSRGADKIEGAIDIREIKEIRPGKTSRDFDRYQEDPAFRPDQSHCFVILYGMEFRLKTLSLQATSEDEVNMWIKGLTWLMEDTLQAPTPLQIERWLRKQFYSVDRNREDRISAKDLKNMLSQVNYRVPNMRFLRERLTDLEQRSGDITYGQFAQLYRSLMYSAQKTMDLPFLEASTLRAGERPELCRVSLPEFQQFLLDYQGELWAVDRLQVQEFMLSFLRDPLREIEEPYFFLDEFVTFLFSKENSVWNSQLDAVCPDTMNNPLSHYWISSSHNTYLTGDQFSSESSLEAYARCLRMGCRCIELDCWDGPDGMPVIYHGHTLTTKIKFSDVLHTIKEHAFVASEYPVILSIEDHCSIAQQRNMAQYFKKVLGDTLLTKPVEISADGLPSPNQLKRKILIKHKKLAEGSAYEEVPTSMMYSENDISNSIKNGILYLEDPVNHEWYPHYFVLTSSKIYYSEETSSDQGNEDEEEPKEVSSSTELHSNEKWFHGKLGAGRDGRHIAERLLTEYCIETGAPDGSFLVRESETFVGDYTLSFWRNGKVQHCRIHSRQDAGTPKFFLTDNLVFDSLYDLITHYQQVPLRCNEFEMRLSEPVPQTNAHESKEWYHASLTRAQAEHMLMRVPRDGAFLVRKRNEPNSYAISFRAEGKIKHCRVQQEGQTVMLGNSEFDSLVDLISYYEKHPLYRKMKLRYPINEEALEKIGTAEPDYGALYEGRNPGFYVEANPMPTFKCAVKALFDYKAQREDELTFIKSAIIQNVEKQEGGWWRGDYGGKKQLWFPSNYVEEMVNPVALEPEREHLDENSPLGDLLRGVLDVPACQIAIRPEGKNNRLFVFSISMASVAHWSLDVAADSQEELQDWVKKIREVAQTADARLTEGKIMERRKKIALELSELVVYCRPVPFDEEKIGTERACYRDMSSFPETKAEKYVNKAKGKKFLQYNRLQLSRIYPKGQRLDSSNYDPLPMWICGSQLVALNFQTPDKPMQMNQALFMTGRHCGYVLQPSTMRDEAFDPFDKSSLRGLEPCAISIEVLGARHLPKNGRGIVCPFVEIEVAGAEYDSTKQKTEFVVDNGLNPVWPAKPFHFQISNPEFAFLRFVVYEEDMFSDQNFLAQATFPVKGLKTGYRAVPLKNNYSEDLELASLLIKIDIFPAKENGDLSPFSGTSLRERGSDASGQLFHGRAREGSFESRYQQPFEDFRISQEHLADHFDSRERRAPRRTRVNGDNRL
# Chain of 1-phosphatidylinositol 4,5-bisphosphate phosphodiesterase beta-3 (Q01970 whole entry): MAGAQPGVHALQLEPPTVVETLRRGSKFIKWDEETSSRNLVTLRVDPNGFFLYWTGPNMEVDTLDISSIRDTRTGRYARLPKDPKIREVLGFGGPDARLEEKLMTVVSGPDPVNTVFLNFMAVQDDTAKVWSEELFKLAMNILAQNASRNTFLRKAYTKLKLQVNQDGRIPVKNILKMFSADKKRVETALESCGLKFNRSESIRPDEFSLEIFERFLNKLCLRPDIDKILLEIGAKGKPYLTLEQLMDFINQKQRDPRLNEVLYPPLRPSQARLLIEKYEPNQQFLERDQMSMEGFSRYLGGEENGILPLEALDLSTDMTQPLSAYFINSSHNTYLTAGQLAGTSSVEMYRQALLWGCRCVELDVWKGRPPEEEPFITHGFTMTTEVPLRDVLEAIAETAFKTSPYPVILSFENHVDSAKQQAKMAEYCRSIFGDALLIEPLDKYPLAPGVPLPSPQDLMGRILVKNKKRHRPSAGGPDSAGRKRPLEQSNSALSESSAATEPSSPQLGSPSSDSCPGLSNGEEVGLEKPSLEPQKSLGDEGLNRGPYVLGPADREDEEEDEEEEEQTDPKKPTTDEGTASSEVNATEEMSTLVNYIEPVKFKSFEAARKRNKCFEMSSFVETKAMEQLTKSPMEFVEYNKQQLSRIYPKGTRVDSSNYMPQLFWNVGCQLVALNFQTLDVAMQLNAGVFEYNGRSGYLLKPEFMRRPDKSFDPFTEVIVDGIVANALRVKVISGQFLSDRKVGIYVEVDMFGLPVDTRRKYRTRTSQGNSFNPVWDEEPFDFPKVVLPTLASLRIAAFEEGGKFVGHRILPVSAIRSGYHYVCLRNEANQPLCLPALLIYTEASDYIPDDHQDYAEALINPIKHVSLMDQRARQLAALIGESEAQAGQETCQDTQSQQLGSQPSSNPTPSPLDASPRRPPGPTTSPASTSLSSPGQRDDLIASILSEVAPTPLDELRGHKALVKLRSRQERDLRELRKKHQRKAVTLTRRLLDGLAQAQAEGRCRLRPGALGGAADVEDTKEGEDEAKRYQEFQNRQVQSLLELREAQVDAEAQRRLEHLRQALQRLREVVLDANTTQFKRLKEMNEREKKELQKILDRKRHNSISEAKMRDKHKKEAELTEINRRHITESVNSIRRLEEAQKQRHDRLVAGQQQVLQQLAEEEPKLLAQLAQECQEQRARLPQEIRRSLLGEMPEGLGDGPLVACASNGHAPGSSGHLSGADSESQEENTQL
# Chain of E3 ubiquitin-protein ligase Mdm2 (Q00987 whole entry): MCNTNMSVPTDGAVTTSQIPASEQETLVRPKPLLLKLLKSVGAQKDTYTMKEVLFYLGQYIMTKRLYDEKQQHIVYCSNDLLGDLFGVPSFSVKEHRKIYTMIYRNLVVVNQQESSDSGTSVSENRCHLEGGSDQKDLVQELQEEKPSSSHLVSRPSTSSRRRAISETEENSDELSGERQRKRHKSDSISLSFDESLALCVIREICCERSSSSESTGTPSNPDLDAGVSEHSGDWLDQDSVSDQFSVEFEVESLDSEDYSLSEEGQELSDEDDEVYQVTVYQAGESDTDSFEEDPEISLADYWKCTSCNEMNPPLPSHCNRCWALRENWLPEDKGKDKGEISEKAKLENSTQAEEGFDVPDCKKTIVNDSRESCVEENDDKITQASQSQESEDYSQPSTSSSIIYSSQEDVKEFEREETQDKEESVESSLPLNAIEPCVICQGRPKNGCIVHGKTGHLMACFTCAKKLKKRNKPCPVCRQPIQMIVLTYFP
# Chain of Sphingosine 1-phosphate receptor 2 (O95136 whole entry): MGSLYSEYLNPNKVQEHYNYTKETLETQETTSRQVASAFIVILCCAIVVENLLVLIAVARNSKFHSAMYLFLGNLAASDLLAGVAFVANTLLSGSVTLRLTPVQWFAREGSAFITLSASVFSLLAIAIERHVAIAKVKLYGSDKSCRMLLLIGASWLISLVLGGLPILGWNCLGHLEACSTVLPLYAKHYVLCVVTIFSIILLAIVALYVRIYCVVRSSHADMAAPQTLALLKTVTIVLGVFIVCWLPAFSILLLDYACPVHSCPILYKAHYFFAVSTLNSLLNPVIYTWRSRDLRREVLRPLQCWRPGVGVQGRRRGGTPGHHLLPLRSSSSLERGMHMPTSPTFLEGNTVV
structure (smiles),measurement,setting,value
Cc1ccc(-n2nnc3c(=O)n(CC(=O)NCc4ccco4)cnc32)cc1,IC50,[1],> 100 µM (not active)
COc1cc2c(cc1OC)C1=C(C#N)CCC(=O)N1CC2,EC50,[2],1.33 µM (active)
COc1ccc(-n2cc(CNCCc3nc(C)cc(C)n3)c(-c3ccccc3Cl)n2)cc1,AC50,[3],11.4 µM (active)
same,AC50,[4],11.4 µM (active)
COc1ccc(/C=C2/C(=O)NC(=O)N(Cc3ccco3)C2=O)cc1,IC50,[5],23.5 µM (active)
same,IC50,[6],1.79 µM (active)
NC(=O)CC(NC(=O)Cc1cccc2ccccc12)c1ccc(N2CCCCCC2)c([N+](=O)[O-])c1 (stereo not drawn),IC50,[7],> 122 µM (inactive)
same,IC50,[8],> 122 µM (inactive)
Cc1ccc(-c2nc3ccccc3c(=O)n2-c2cccnc2)cc1,EC50,[9],54.5 µM (not active)
CCCNC(=O)c1ccc(N2CCC3(CC2)CC(c2ccccc2)=NO3)c(NC(=O)c2ccco2)c1,EC50,[10],15.7 µM (active)
same,EC50,[11],> 150 µM (not active)
same,EC50,[12],38.2 µM (active)
same,IC50,[13],31 µM (inactive)
same,EC50,[14],> 167 µM (inactive)
Clc1ccc(-c2nnc(SCc3nc4ccccc4[nH]3)o2)c(Cl)c1,IC50,[15],0.802 µM (active)
same,IC50,[16],83.3 µM (inactive)
same,IC50,[17],0.401 µM (active)
same,IC50,[18],> 83.3 µM (inactive)
